Measurements reported in US20190119348A1, “PARATHYROID HORMONE RECEPTOR 1 ANTAGONIST AND INVERSE AGONIST POLYPEPTIDES AND METHODS OF THEIR USE” (The General Hospital Corporation, priority 2016, published 2019).
pIC50: −log10 of the molar value. Where a SMILES comes first, the peptide text is derived from it. [ ]: non-standard residue; d: D form.

Target: T1, endogenous hPTHR1 (Homo sapiens, UniProt Q03431)
T1 construct: Saos-2, in which is endogenously expressed the hPTHR1; endogenous in cells
T1 sequence (Q03431 27-593): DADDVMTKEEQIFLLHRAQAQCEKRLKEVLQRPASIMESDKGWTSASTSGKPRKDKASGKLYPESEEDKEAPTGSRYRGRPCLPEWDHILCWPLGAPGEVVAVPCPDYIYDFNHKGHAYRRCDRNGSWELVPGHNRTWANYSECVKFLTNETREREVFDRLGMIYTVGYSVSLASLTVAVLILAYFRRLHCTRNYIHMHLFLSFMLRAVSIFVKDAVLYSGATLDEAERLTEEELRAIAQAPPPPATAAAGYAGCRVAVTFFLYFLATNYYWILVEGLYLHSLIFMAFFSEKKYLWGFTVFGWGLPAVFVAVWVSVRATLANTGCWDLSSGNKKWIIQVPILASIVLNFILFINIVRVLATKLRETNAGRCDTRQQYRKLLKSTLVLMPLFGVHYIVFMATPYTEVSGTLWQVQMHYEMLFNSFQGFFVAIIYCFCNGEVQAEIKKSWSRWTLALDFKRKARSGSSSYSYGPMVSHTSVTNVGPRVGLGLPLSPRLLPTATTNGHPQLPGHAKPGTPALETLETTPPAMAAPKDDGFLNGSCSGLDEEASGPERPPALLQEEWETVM
Assay: Antagonism of PTH(1-34)- and PTHrP(1-36)-induced cAMP response (GloSensor) in SGS-72 cells
Assay type: cell-based
Details: IC50 PTH(1-34) (Table 6, nanomolar value), antagonist pre-treatment 15 minutes, PTH(1-34) 0.3 nM
Method in brief: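 SaOS2-derived SGS-72 cells, which express endogenous hPTHR1 and a stable GloSensor cAMP reporter, were loaded with 0.5 mM luciferin for 15 min at room temperature in CO2-independent medium with 0.1% BSA. Antagonist was tested against PTH(1-34) or PTHrP(1-36), with luminescence taken at the agonist-alone maximum; pIC50 came from four-parameter fits.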

pIC50: 8.59
Structure (SMILES): CC[C@H](C)[C@H](N)C(=O)N[C@@H](CCC(N)=O)C(=O)N[C@@H](CC(C)C)C(=O)N[C@@H](CCSC)C(=O)N[C@@H](Cc1c[nH]cn1)C(=O)N[C@@H](CCC(N)=O)C(=O)N[C@@H](CC(C)C)C(=O)N[C@H](Cc1c[nH]c2ccccc12)C(=O)N[C@@H](CCCCN)C(=O)N[C@@H](Cc1c[nH]c2ccccc12)C(=O)N[C@H](C(=O)N[C@@H](CCC(N)=O)C(=O)N[C@@H](CC(=O)O)C(=O)N[C@@H](C)C(=O)N[C@@H](CCCNC(=N)N)C(=O)N[C@@H](CCCNC(=N)N)C(=O)N[C@@H](CCCNC(=N)N)C(=O)N[C@@H](C)C(=O)N[C@@H](Cc1c[nH]c2ccccc12)C(=O)N[C@@H](CC(C)C)C(=O)N[C@@H](Cc1c[nH]cn1)C(=O)N[C@@H](CCCCN)C(=O)N[C@@H](CC(C)C)C(=O)N[C@H](C(=O)N[C@@H](C)C(=O)N[C@@H](CCC(=O)O)C(=O)N[C@H](C(=O)N[C@@H](Cc1c[nH]cn1)C(=O)N[C@H](C(=O)N[C@@H](C)C(=O)N[C@@H](CCC(=O)O)C(=O)N[C@H](C(N)=O)[C@@H](C)CC)[C@@H](C)O)[C@@H](C)CC)[C@@H](C)CC)[C@@H](C)CC [compound 2003, L11, dW12, W23-LA-PTH(5-36)-2003] (H-IQLMHQL[dW]KWIQDARRRAWLHKLIAEIHTAEI-NH2; N-terminus assumed)
